# Results reported in paper PMC8143184, “Exploring the Diversity of Fungal DyPs in Mangrove Soils to Produce and Characterize Novel Biocatalysts” (Journal of Fungi, 2021).
# Where two headings read alike, the source gives them in different places.
# Assays:
# [1] = test system: T1, DyP1 (OFU1; recombinant DyP1 from mangrove soils); assay: dye decolorization at […] nm, Michaelis-Menten fit; format: biochemical; conditions: H2O2 0.25 mM co-substrate; 100 mM citrate-phosphate pH 2.6; 30 °C; read-out: Parameters / Km
# T1 construct: codon-optimized synthetic cDNA from environmental cDNA capture; secreted from Pichia pastoris X33 (pPICZalphaA), C-terminal His6 tag; expected 55 kDa, about 70 kDa glycosylated on SDS-PAGE
# [2] = test system: DyP1 (OFU1; recombinant DyP1 from mangrove soils); conditions: read-out: Parameters / Km; H2O2 0.25 mM co-substrate; 100 mM citrate-phosphate pH 3; 30 °C
Km [1],Km [2],SMILES
1500 ± 878 µM,,Nc1c(S(=O)(=O)O)cc(Nc2cccc(S(=O)(=O)CCOS(=O)(=O)O)c2)c2c1C(=O)c1ccccc1C2=O [RB19]
,651 ± 81 µM,CCn1c(=NN=c2sc3cc(S(=O)(=O)O)ccc3n2CC)sc2cc(S(=O)(=O)O)ccc21 [ABTS]
